Data set [1] concerns Lucilia sericata and L. cuprina. In words: Action against blowflies. The class given is in vivo. As to conditions: 6.4 ppm, after at the most 96 h. As for the experimental part: Freshly deposited eggs of the blowfly species Lucilia sericata and L. cuprina are placed in small portions (30 to 50 eggs) into each of a number of test tubes in which 4 ml of nutrient medium have been mixed with 1 ml of test solution at the intermediate dilution of the active ingredient necessary to obtain the final concentration. After inoculating the culture medium, the test tubes are sealed with cotton wool plugs and are then incubated in an incubator at 30° C. for 4 days. In the untreated medium, larvae about 1 cm in length (stage 3) have developed by the end of this 4-day period. When a compound is active the larvae are by the end of this period either dead or distinctly retarded. Four tests are carried out simultaneously with concentrations of 100, 40, 16 and 6.4 ppm, respectively. The activity is measured according to the lowest concentration that is still fully active (LC 100).

The test system of another data set is Ctenocephalides felis. In words: Action against fleas (infested dogs, oral). Format: in vivo, Ctenocephalides felis (on dogs). The conditions noted are these: 50 mg kg-1 day-1, dogs. On the procedure: Dogs having the proven ability to support a flea population permanently are infested with 100 cat fleas Ctenocephalides felis Bouche. The infested dogs are then divided into 3 groups of 2 animals. […] The test compound is administered in the form of an aqueous suspension (by means of a syringe). The third group of animals is not treated and serves as a control group.
After 3, 8 and 10 days, the eggs of the fleas are collected from the paper which is under the dog cages. The eggs are counted, placed on a medium suitable for the culture of larvae and incubated. A count is made of the resulting pupae and fully grown fleas.

Data set [2] in a line: Bio-availability: blood plasma level after injection of calves. Format: in vivo. As for the experimental part:
As a measure of bio-availability, the blood plasma level of the compounds is determined on several days after the injection of calves with, in each case, 1 mg of compound/kg body weight.

Data set [3] is described as follows: Physico-chemical characteristics: solubilities. The class given is physicochemical.
Where [4] appears, read: hexane, organic solvent or mixture, read-out: solubility in hexane.
Setting [5] is: water, read-out: solubility in water.

Consider five compounds from patent US4946854A, “3-aminobenzoylphenylureas useful for controlling parasites and insects that attack domestic animals and livestock” (priority 1987, dated 1990).

Structures are written as SMILES. In brackets after ≈: the same amount, converted by molar mass. Read-outs that look alike come from different tables or passages of the source.

`Nc1ccc(F)c(C(=O)NC(=O)Nc2ccc(Cl)c(Oc3ncc(C(F)(F)C(F)(Cl)Cl)cc3Cl)c2)c1F` [Compound 1.9]: the “mortality of the larvae” value in data set [1] is on record as 100%.
Turning to `Nc1ccc(F)c(C(=O)NC(=O)Nc2cccc(Sc3ncc(C(F)(F)F)cc3Cl)c2)c1F` [Compound 1.12], the activity entry in the data set with Ctenocephalides felis is given as “more than 50%”.
On to `Nc1ccc(F)c(C(=O)NC(=O)Nc2ccc(Cl)c(Oc3ncc(C(F)(F)F)cc3Cl)c2)c1F` [Compound 1.1, N-[3-(3-chloro-5-trifluoromethylpyridyl-2-oxy)-4-chlorophenyl]-N'-[2,6-difluoro-3-aminobenzoyl]-urea], for which the concentration at 24 h in data set [2] (bovine, plasma, 1 mg/kg, day 1, calf 3, 1 mg/kg injection) came to 126 ng/mL; in data set [2] (bovine, plasma, 1 mg/kg, day 1, calf 4, 1 mg/kg injection), 185 ng/mL. Moreover, the concentration at 168 h was determined as 48 ng/mL in data set [2] (bovine, plasma, 1 mg/kg, day 7, calf 3, 1 mg/kg injection) and 66 ng/mL in data set [2] (bovine, plasma, 1 mg/kg, day 7, calf 4, 1 mg/kg injection). Also, the concentration at 336 h in data set [2] (bovine, plasma, 1 mg/kg, day 14, calf 3, 1 mg/kg injection) was 16 ng/mL; in data set [2] (bovine, plasma, 1 mg/kg, day 14, calf 4, 1 mg/kg injection), 27 ng/mL. Besides, the concentration at 504 h in data set [2] (bovine, plasma, 1 mg/kg, day 21, calf 3, 1 mg/kg injection) was determined as 10 ng/mL; in data set [2] (bovine, plasma, 1 mg/kg, day 21, calf 4, 1 mg/kg injection), 12 ng/mL. Moreover, the concentration at 672 h in data set [2] (bovine, plasma, 1 mg/kg, day 28, calf 3, 1 mg/kg injection) stood at 5 ng/mL; in data set [2] (bovine, plasma, 1 mg/kg, day 28, calf 4, 1 mg/kg injection), 6 ng/mL. Further, the concentration at 840 h in data set [2] (bovine, plasma, 1 mg/kg, day 35, calf 3, 1 mg/kg injection) stood at 2 ng/mL; in data set [2] (bovine, plasma, 1 mg/kg, day 35, calf 4, 1 mg/kg injection), 4 ng/mL. For the same compound, the “bio-availability compared with (A)” value in data set [2] (calves, injection, 1 mg/kg) was “distinctly better bio-availability than does compound (A)”. The “excretion compared with (A)” value in data set [2] (calves, injection, 1 mg/kg) is listed as “excreted considerably more rapidly than (A)”. For the same compound, in data set [2] (calves, injection, 1 mg/kg), the “reaching of high concentration in the blood plasma” value is listed as “a high concentration in the blood plasma is reached very rapidly”. Further, the Blood plasma level in data set [2] (day 42, calf 3, 1 mg/kg injection) is recorded as 0 ppb; in data set [2] (day 42, calf 4, 1 mg/kg injection), 0 ppb; in data set [2] (day 49, calf 3, 1 mg/kg injection) it was 0 ppb; in data set [2] (day 49, calf 4, 1 mg/kg injection), 0 ppb; in data set [2] (day 56, calf 3, 1 mg/kg injection), 0 ppb; in data set [2] (day 56, calf 4, 1 mg/kg injection) it was 0 ppb. Further, the Blood plasma level in data set [2] (day 63, calf 4, 1 mg/kg injection) was found to be 0 ppb; in data set [2] (day 70, calf 4, 1 mg/kg injection), 0 ppb; in data set [2] (day 77, calf 4, 1 mg/kg injection) it was 0 ppb; in data set [2] (day 84, calf 4, 1 mg/kg injection) it was 0 ppb. The “blood plasma values compared with (A)” value in data set [2] (very rapidly after administration, calves, 1 mg/kg) is recorded as “higher blood plasma values”. Also, the figures for the solubility in data set [3] (setting [4]) and in data set [3] (setting [5]) were around 60 µg/mL (≈ 115 µM) and 0.11 µg/mL (≈ 0.211 µM), respectively. In addition, the solubility in isopropanol in data set [3] was 0.30%. This compound registered a solubility in n-octanol in data set [3] of 0.56%. Also, the activity entry in the data set on Ctenocephalides felis is reported as “more than 50%”.
Take `O=C(NC(=O)c1c(F)cccc1F)Nc1ccc(Cl)c(Oc2ncc(C(F)(F)F)cc2Cl)c1` [(A)]: the concentration at 24 h in data set [2] (bovine, plasma, 1 mg/kg, day 1, calf 1, 1 mg/kg injection) was 7 ng/mL; in data set [2] (bovine, plasma, 1 mg/kg, day 1, calf 2, 1 mg/kg injection) it was 5 ng/mL. In addition, the concentration at 168 h stood at 3 ng/mL in data set [2] (bovine, plasma, 1 mg/kg, day 7, calf 1, 1 mg/kg injection) and 4 ng/mL in data set [2] (bovine, plasma, 1 mg/kg, day 7, calf 2, 1 mg/kg injection). The concentration at 336 h in data set [2] (bovine, plasma, 1 mg/kg, day 14, calf 1, 1 mg/kg injection) is 4 ng/mL; in data set [2] (bovine, plasma, 1 mg/kg, day 14, calf 2, 1 mg/kg injection), 9 ng/mL. For the same compound, the concentration at 504 h is 7 ng/mL in data set [2] (bovine, plasma, 1 mg/kg, day 21, calf 1, 1 mg/kg injection) and 10 ng/mL in data set [2] (bovine, plasma, 1 mg/kg, day 21, calf 2, 1 mg/kg injection). The concentration at 672 h in data set [2] (bovine, plasma, 1 mg/kg, day 28, calf 1, 1 mg/kg injection) is 6 ng/mL; in data set [2] (bovine, plasma, 1 mg/kg, day 28, calf 2, 1 mg/kg injection) it was 5 ng/mL. Further, the concentration at 840 h in data set [2] (bovine, plasma, 1 mg/kg, day 35, calf 1, 1 mg/kg injection) amounted to 6 ng/mL; in data set [2] (bovine, plasma, 1 mg/kg, day 35, calf 2, 1 mg/kg injection), 10 ng/mL. Further, the concentration at 1008 h in data set [2] (bovine, plasma, 1 mg/kg, day 42, calf 1, 1 mg/kg injection) came to 9 ng/mL; in data set [2] (bovine, plasma, 1 mg/kg, day 42, calf 2, 1 mg/kg injection) it was 6 ng/mL. The concentration at 1176 h came out at 4 ng/mL in data set [2] (bovine, plasma, 1 mg/kg, day 49, calf 1, 1 mg/kg injection) and 4 ng/mL in data set [2] (bovine, plasma, 1 mg/kg, day 49, calf 2, 1 mg/kg injection). Besides, the concentration at 1344 h was determined as 5 ng/mL in data set [2] (bovine, plasma, 1 mg/kg, day 56, calf 1, 1 mg/kg injection) and 5 ng/mL in data set [2] (bovine, plasma, 1 mg/kg, day 56, calf 2, 1 mg/kg injection). The concentration at 1512 h is 4 ng/mL in data set [2] (bovine, plasma, 1 mg/kg, day 63, calf 1, 1 mg/kg injection) and 6 ng/mL in data set [2] (bovine, plasma, 1 mg/kg, day 63, calf 2, 1 mg/kg injection). Besides, the concentration at 1680 h in data set [2] (bovine, plasma, 1 mg/kg, day 70, calf 1, 1 mg/kg injection) is 7 ng/mL; in data set [2] (bovine, plasma, 1 mg/kg, day 70, calf 2, 1 mg/kg injection), 5 ng/mL. Besides, the concentration at 1848 h was determined as 5 ng/mL in data set [2] (bovine, plasma, 1 mg/kg, day 77, calf 1, 1 mg/kg injection) and 2 ng/mL in data set [2] (bovine, plasma, 1 mg/kg, day 77, calf 2, 1 mg/kg injection). Further, the concentration at 2016 h in data set [2] (bovine, plasma, 1 mg/kg, day 84, calf 1, 1 mg/kg injection) was 7 ng/mL; in data set [2] (bovine, plasma, 1 mg/kg, day 84, calf 2, 1 mg/kg injection), 7 ng/mL. The Cmax in data set [2] (bovine, plasma, calves, injection, 1 mg/kg, read-out: maximum concentration in the blood (plasma)) was 7 to 10 ng/mL. For the same compound, the “persistence of blood plasma level” value in data set [2] (level of 7 to 10 ppb, calves, 1 mg/kg) is recorded as “maintained over a relatively long period”. Besides, the figures for the solubility in data set [3] (setting [4]) and in data set [3] (setting [5]) were 3 µg/mL (≈ 5.93 µM) and 0.02 µg/mL (≈ 0.0395 µM), respectively. The compound also registered a solubility in isopropanol in data set [3] of 0.09%. In data set [3], this compound displayed a solubility in n-octanol of 0.065%.
Turning to `Nc1ccc(F)c(C(=O)NC(=O)Nc2ccc(F)c(Oc3ncc(C(F)(F)F)cc3Cl)c2)c1F` [Compound 1.6, N-[3-(3-chloro-5-trifluoromethylpyridyl-2-oxy)-4-fluorophenyl]-N'-[2,6-difluoro-3-aminobenzoyl]-urea], the activity result in the data set with Ctenocephalides felis is on record as “more than 50%”.
